Results on six molecules are retold here after the RepoRT retention time repository (doi:10.1016/j.chroma.2019.01.023).

Conditions in all cases: stereoisomer not certain
Data set [1] can be described thus: RP, Phenomenex Kinetex C18, 150 × 2.1 mm, 1.7 µm, 30 °C, 0.3 mL/min, estimated dead time 1.1 min; A: water + 0.1% formic acid, pH 3; B: acetonitrile + 0.1% formic acid, pH 3; gradient (min/%B) 0/2 14/100 17/100 17.1/2 25/2.
The nature of data set [2]: HILIC, Waters ACQUITY UPLC BEH Amide, 150 × 2.1 mm, 1.7 µm, 40 °C, 0.5 mL/min, estimated dead time 0.66 min; A: 5% water + 95% acetonitrile; B: 70% water + 30% acetonitrile + 10 mM ammonium formate, pH 6.5; gradient (min/%B) 0/0 2/0 20/70 23/70 24/0 31/0.
Data set [3] in a line: HILIC, Merck SeQuant ZIC-pHILIC, 150 × 2.1 mm, 5 µm, 40 °C, 0.3 mL/min, estimated dead time 1.1 min; A: acetonitrile; B: water + 2.8 mM ammonium formate, pH 9; gradient (min/%B) 0/5 1/5 10/51 13/51 13.1/5 20/5.
Data set [4] in a line: RP, Phenomenex Kinetex C18, 150 × 2.1 mm, 1.7 µm, 30 °C, 0.3 mL/min, estimated dead time 1.1 min; A: water + 0.1% formic acid, pH 3; B: acetonitrile + 0.1% formic acid, pH 3; gradient (min/%B) 0/2 14/100 17/100 17.1/2 25/2. This is another data set of the same source.

`Cc1cn(C2CC(O)C(CO)O2)c(=O)[nH]c1=O` (centres undefined) [THYMIDINE]: the LC retention time in data set [1] is 3.21 min; in data set [2] it was 1.97 min; in data set [3] it was 3.56 min; in data set [4] it was 3.34 min.

In the case of `Cc1c[nH]c(=O)[nH]c1=O` [THYMINE], the LC retention time in data set [1] was 2.42 min; in data set [2], 1.6 min; in data set [3], 2.68 min; in data set [4] it was 2.54 min.

On to `NC(Cc1ccc(O)cc1)C(=O)O` (centres undefined) [TYROSINE], for which the LC retention time is 2 min in data set [1], 9 min in data set [2], 8.2 min in data set [3] and 2.11 min in data set [4].

Take `O=c1ccn(C2OC(CO)C(O)C2O)c(=O)[nH]1` (centres undefined) [URIDINE]: the LC retention time in data set [1] was 1.88 min; in data set [2], 3.65 min; in data set [3], 6.2 min; in data set [4], 2.06 min.

Turning to `O=c1[nH]c(=O)c2[nH]cnc2[nH]1` [XANTHINE], the LC retention time is 1.82 min in data set [1], 4.97 min in data set [2], 6.53 min in data set [3] and 2.05 min in data set [4].

In the case of `O=c1[nH]c(=O)c2ncn(C3OC(CO)C(O)C3O)c2[nH]1` (centres undefined) [XANTHOSINE], the LC retention time in data set [1] was 3.01 min; in data set [2] it was 7.17 min; in data set [3], 7.99 min; in data set [4], 3.11 min.
